{"source": "patent US10947273B2", "about": "“Peptides of use in the preventive and curative treatment of alopecia” (Institut Europeen de Biologie Cellulaire, priority 2015, dated 2021)", "key": {"[1]": {"test_system": "normal human dermal fibroblasts (NHDF)", "test": "CellTiter-Blue proliferation of NHDF", "format": "cell-based", "conditions": "10^−5M, 72 hours", "protocol": "Cell proliferation and viability were evaluated in vitro with a kit from Promega, CellTiter-Blue® Cell Viability Assay, for estimating the number of living cells present in the culture. This kit is based on detection, by measurement of fluorescence, of conversion of the dye, resazurin, into a fluorescent product (resorufin) by living and thus metabolically active cells.\nThe effect of the peptides tested, (1) and (9), at 4 different concentrations (10^−5, 10^−7, 10^−9 and 10^−11M) was examined on five cell types: immortalized human skin keratinocytes (HaCaT), human hair follicular keratinocytes (HHFK), normal human dermal fibroblasts (NHDF), hair follicle dermal papilla cells (HFDPC), and normal human epidermal melanocytes (NHEM) exposed to the molecule studied for 72 hours."}, "VEGF [2]": {"test_system": "VEGF", "test": "qPCR (TLDA) VEGF gene expression in HFDPC", "format": "cell-based, human", "conditions": "peptide 10^−5 M (table title), 24 hours, relative to untreated controls", "protocol": "(§1) RNA was extracted and purified from cell pellets using the RNA XS Kit (Macherey-Nagel). RNA quantification was carried out with a NanoDrop device and sample quality was verified on a Bioanalyzer with RNA 6000 Nano chips (Agilent). cDNA was synthesized from 300 ng of RNA using the High-Capacity cDNA Reverse Transcription Kit (LifeTech). Quality-control qPCR assays of the cDNA were carried out in microplates on the reference gene, GAPDH, and the SIRT1 gene.\n(§2) Final qPCR experiments were carried out in a 1 μl volume on microfluidic cards (TaqMan Low Density Arrays, LifeTech) and the ABI 7900HT qPCR device. Amplification reactions were performed in duplicate using 1 to 2 ng of cDNA per qPCR reaction and TaqMan Universal Master Mix II (LifeTech).\n(§3) Ct values were obtained using the RQ Manager software. For analyses of qPCR results, Ct values were limited to 35 cycles and the duplicate assays are averaged. The GeneXPro software was used for the studies of stability and of selection of the best reference genes. Expression variations are calculated by the relative quantification method and are expressed as percent increase in expression of the gene of interest relative to the untreated controls."}, "IGF1": {"test_system": "IGF1", "test": "qPCR (TLDA) IGF1 gene expression in HFDPC", "format": "cell-based, human", "conditions": "peptide 10^−9, 24 hours, relative to untreated controls", "protocol": "(§4) To study the effect of 9 peptides on these genes, HFDPC were treated for 24 hours with the molecules tested at 10^−7M and 10^−9M concentrations.\nas §1, §2, §3"}, "BMP2 [3]": {"test_system": "BMP2", "test": "qPCR (TLDA) BMP2 gene expression in HFDPC", "format": "cell-based, human", "conditions": "peptide 10^−9, 24 hours, relative to untreated controls", "protocol": "as §4, §1, §2, §3"}, "[4]": {"test_system": "genes whose expression is reduced in subjects characterized by alopecia", "test": "qPCR (TLDA) overall statement, genes involved in alopecia, HFDPC", "format": "cell-based, human", "conditions": "summary of Table 1", "protocol": "as §4, §1, §2, §3"}, "PDGF": {"test_system": "PDGF", "test": "PDGF secretion by HFDPC (ELISA/BioPlex)", "format": "cell-based, human", "conditions": "48h", "protocol": "(§5) NHDF, HFDPC, HHFK and NHEM cells were treated with the peptides studied for 48h. At the end of the treatment, cell supernatants were collected and stored at −80° C. until analysis. The factors of interest secreted into the supernatant were assayed by ELISA® (R&D) or BioPlex® (BioRad®).\n(§6) The results are expressed as percent increase in the concentration of the factor present in the supernatant relative to the untreated control. The intensity of the effect varies as a function of the concentration of the peptide studied and of the cell type treated."}, "KGF": {"test_system": "KGF", "test": "KGF secretion by HFDPC (ELISA/BioPlex)", "format": "cell-based, human", "conditions": "48h", "protocol": "as §5, §6"}, "VEGF [5]": {"test_system": "VEGF", "test": "VEGF secretion by HFDPC (ELISA/BioPlex)", "format": "cell-based, human", "conditions": "10^−5 M, 48h", "protocol": "as §5, §6"}, "BMP2 [6]": {"test_system": "BMP2", "test": "BMP2 secretion by HFDPC (ELISA/BioPlex)", "format": "cell-based, human", "conditions": "10^−5 M, 48h", "protocol": "as §5, §6"}, "NGF [7]": {"test_system": "NGF", "test": "NGF secretion by NHDF (ELISA/BioPlex)", "format": "cell-based, human", "conditions": "48h", "protocol": "as §5, §6"}, "VEGF [8]": {"test_system": "VEGF", "test": "VEGF secretion by NHDF (ELISA/BioPlex)", "format": "cell-based, human", "conditions": "10^−7 M, 48h", "protocol": "as §5, §6"}, "SCF [9]": {"test_system": "SCF", "test": "SCF secretion by NHDF (ELISA/BioPlex)", "format": "cell-based, human", "conditions": "10^−5 M, 48h", "protocol": "as §5, §6"}, "HGF": {"test_system": "HGF", "test": "HGF secretion by HHFK (ELISA/BioPlex)", "format": "cell-based, human", "conditions": "10^−7 M, 48h", "protocol": "as §5, §6"}, "SCF [10]": {"test_system": "SCF", "test": "SCF secretion by HHFK (ELISA/BioPlex)", "format": "cell-based, human", "conditions": "10^−7 M, 48h", "protocol": "as §5, §6"}, "NGF [11]": {"test_system": "NGF", "test": "NGF secretion by HHFK (ELISA/BioPlex)", "format": "cell-based, human", "conditions": "10^−7 M, 48h", "protocol": "as §5, §6"}, "VEGF [12]": {"test_system": "VEGF", "test": "VEGF secretion by NHEM (ELISA/BioPlex)", "format": "cell-based, human", "conditions": "10^−7 M, 48h", "protocol": "as §5, §6"}, "[13]": {"test_system": "microdissected hairs from scalp surgery specimens", "test": "Growth of isolated hair ex vivo", "format": "cell-based, human", "conditions": "for Growth at D 11/D 12 Vs Control: ex vivo isolated hair", "protocol": "This study was carried out on microdissected hairs from scalp surgery specimens from women aged 52 to 71 years. Isolated hairs were kept alive for 11 to 12 days in Williams medium, under conventional cell culture conditions (37° C., 5% CO2). […]\nTo evaluate the effect of (1), (6) or (9) on hair growth, the hairs were photographed and their lengths measured using image analysis software. Thus, the growth of the hairs between D0 and D11/D12 could be calculated and compared with that of the untreated control. At the end of the treatments (D11 or D12), the hairs were collected and frozen or fixed for immunolabeling and histological staining."}}, "note": "Marks after values point to notes of the source that are not given here. The star is where a group is joined. Palmitoyl = CCCCCCCCCCCCCCCC(=O)*"}
{"substance": "Palm-Ala-Ala-Pro-Ala-Lys-NH2 (Palmitoyl-AAPAK-NH2; SMILES CCCCCCCCCCCCCCCC(=O)N[C@@H](C)C(=O)N[C@@H](C)C(=O)N1CCC[C@H]1C(=O)N[C@@H](C)C(=O)N[C@@H](CCCCN)C(N)=O) [(6)]", "values": [{"measurement": "stimulation of proliferation of NHDF", "setting": "[1]", "result": "+11%"}, {"measurement": "% stimulation VEGF gene expression", "setting": "VEGF [2]", "result": 24, "unit": "%"}, {"measurement": "% stimulation IGF1 gene expression", "setting": "IGF1", "result": "94% (10^−9)"}, {"measurement": "% stimulation BMP2 gene expression", "setting": "BMP2 [3]", "result": "116% (10^−9)"}, {"measurement": "stimulation of genes whose expression is reduced in alopecia (in words)", "setting": "[4]", "result": "stimulate several genes"}, {"measurement": "PDGF secretion, percent increase relative to untreated control", "setting": "PDGF; 10^−5 M", "result": "PDGF 15%"}, {"measurement": "PDGF secretion, percent increase relative to untreated control", "setting": "PDGF; 10^−7 M", "result": "PDGF 38%"}, {"measurement": "KGF secretion, percent increase relative to untreated control", "setting": "KGF; 10^−5 M", "result": "KGF 7%"}, {"measurement": "KGF secretion, percent increase relative to untreated control", "setting": "KGF; 10^−7 M", "result": "KGF 13%"}, {"measurement": "VEGF secretion, percent increase relative to untreated control", "setting": "VEGF [5]", "result": "VEGF 18%"}, {"measurement": "BMP2 secretion, percent increase relative to untreated control", "setting": "BMP2 [6]", "result": "BMP2 44%"}, {"measurement": "NGF secretion, percent increase relative to untreated control", "setting": "NGF [7]; 10^−5 M", "result": "NGF 51%"}, {"measurement": "NGF secretion, percent increase relative to untreated control", "setting": "NGF [7]; 10^−7 M", "result": "NGF 12%"}, {"measurement": "VEGF secretion, percent increase relative to untreated control", "setting": "VEGF [8]", "result": "VGF 407%"}, {"measurement": "SCF secretion, percent increase relative to untreated control", "setting": "SCF [9]", "result": "SCF 8%"}, {"measurement": "HGF secretion, percent increase relative to untreated control", "setting": "HGF", "result": "HGF 52%"}, {"measurement": "SCF secretion, percent increase relative to untreated control", "setting": "SCF [10]", "result": "SCF 9%"}, {"measurement": "NGF secretion, percent increase relative to untreated control", "setting": "NGF [11]", "result": "NGF 10%"}, {"measurement": "VEGF secretion, percent increase relative to untreated control", "setting": "VEGF [12]", "result": "VEGF 15%"}, {"measurement": "Growth at D 11/D 12 Vs Control", "setting": "[13]; 10^−7 M", "result": "+28%"}, {"measurement": "Growth at D 11/D 12 Vs Control", "setting": "[13]; 10^−9 M", "result": "+38%#"}, {"measurement": "growth increase compared with minoxidil sulphate", "setting": "[13]; peptide 10^−9M, minoxidil sulphate 10^−5 M", "result": "higher than that obtained after treatment with minoxidil sulphate"}, {"measurement": "hair growth after 11 to 12 days of treatment ex vivo (in words)", "setting": "[13]; summary of Table 3", "result": "stimulate hair growth"}]}
